The values that follow are results of earlier work, collected in patent US20190110514A1, “KITS COMPRISING SATIETY-INDUCING FORMULATIONS” (PERORA GMBH, priority 2016, published 2019).

Each structure is given as a SMILES string.

One data set has as its system satiety signalling. Particulars: infusion into the duodenum by feeding tube.
For data set [1] the following is noted: rat feeding study; independent from intake.

On to `CCCCCCCC/C=C\CCCCCCCC(=O)O` [oleic acid], for which the satiety signalling entry in the data set with satiety signalling is “strong satiety signalling”.

With `CCCCCCCCCCCCCCCCCC(=O)OCC(COC(=O)CCCCCCCCCCCCCCCCC)OC(=O)CCCCCCCCCCCCCCCCC` [tristearin], in data set [1], the “true digestibility of stearic acid from tristearin” value is reported as 0.15 g/g.

As for `CCCCCCCCCCCC(=O)O` [lauric acid], in the data set with satiety signalling, the satiety signalling result is given as “strong satiety signalling”.
